Results reported in US4410516A, “1-N(αHydroxy-ω-aminoalkanoyl) derivatives of 5,3',4'-trideoxy- or 5,3', 4'-trideoxy-6'-N- methyl- or 5, 3', 4',6"-tetradeoxykannamyci B and production thereof” (Zaidan Hojin Biseibutsu Kagaku Kenkyu Kai, priority 1981, dated 1983).
In brackets after ≈: the same amount, converted by molar mass. Where two headings read alike, the source gives them in different places.

Assays:
Assay type in all cases: cell-based
[1] = test system: Klebsiella pneumoniae PCI 602; test: Minimum inhibitory concentration, serial dilution on nutrient agar
[2] = test system: Staphylococcus aureus AP01; test: as above; conditions: 37° C., 18 hours incubation
[3] = test system: Pseudomonas aeruginosa TI-13; test: as above
[4] = test system: Mycobacterium smegmatis ATCC 607; test: as above; conditions: Mycolicibacterium smegmatis
[5] = test system: Escherichia coli K-12 LA 290 R64; test: as above; conditions: K12LA290R64, 18 h
Serratia SOU = test: as above; conditions: 37° C., 18 hours incubation
Escherichia coli K-12 = test: as above; conditions: K12, nutrient agar, 37° C., 18 hours incubation, read-out: MIC
[6] = test system: Micrococcus flavus FDA 16; test: as above
Sarcina lutea PCI 1001 = test: as above; conditions: Micrococcus luteus
[7] = test system: Escherichia coli JR66/W677; test: as above
Bacillus anthracis = test: microbe, parasite or virus in culture; conditions: 18 h
Providencia Pv 16 = test: Minimum inhibitory concentration, serial dilution on nutrient agar; conditions: PV16, 37° C., 18 hours incubation
[8] = test system: Pseudomonas aeruginosa H9; test: as above
[9] = test system: Pseudomonas maltophilia GN907; test: as above; conditions: Stenotrophomonas maltophilia, 37° C., 18 hours incubation
[10] = test system: Staphylococcus aureus 209P; test: as above; conditions: 37° C., 18 hours incubation
[11] = test system: Bacillus cereus ATCC 10702; test: as above
[12] = test system: Pseudomonas aeruginosa 99; test: as above
Serratia 4 = test: as above; conditions: 37° C., 18 hours incubation
[13] = test system: Bacillus subtilis PCI 219; test: as above; conditions: PCI219, 37° C., 18 hours incubation
[14] = test system: Pseudomonas aeruginosa 21-75; test: as above; conditions: 2175, 37° C., 18 hours incubation
[15] = test system: Pseudomonas aeruginosa K-Ps102; test: as above
Escherichia coli K-12 R5 = test: as above; conditions: K12R5, 18 h
[16] = test system: Pseudomonas aeruginosa No. 12; test: as above; conditions: NO.12, nutrient agar, 37° C., 18 hours incubation, read-out: MIC
Escherichia coli NIHJ = test: as above; conditions: nutrient agar, 37° C., 18 hours incubation, read-out: MIC
[17] = test system: Escherichia coli K-12 LA 290 R56; test: as above; conditions: K12LA290R56, 18 h
Shigella sonnei JS11746 = test: as above; conditions: 37° C., 18 hours incubation
Text: (§1) The minimum inhibitory concentration (mcg/ml) of 1-N-[(S)-4-amino-2-hydroxybutyryl]-5,3',4'-trideoxykanamycin B (abbreviated as AHB-trideoxyKMB), 1-N-[(RS)-3-amino-2-hydroxypropionyl]-5,3',4'-trideoxykanamycin B (abbreviated as AHP-trideoxy-KMB) and 1-N-[(S)-4-amino-2-hydroxybutyryl]-5,3',4',6"-tetradeoxykanamycin B (abbreviated as AHB-tetradeoxyKMB) of the formula (II) according to this invention as well as of the new compound 5,3',4',6"-tetradeoxykanamycin B (abbreviated as tetradeoxyKMB) of the formula (III) according to this invention against various microorganisms were determined according to serial dilution method on a nutrient agar medium at 37° C., the estimation being made after 18 hours incubation. For comparison purpose, the minimum inhibitory concentrations of habekacin were also determined in the same manner as stated above.
(§2) The minimum inhibitory concentrations (mcg/ml) of 1-N-[(S)-4-amino-2-hydroxybutyryl]-5,3',4'-trideoxy-6'-N-methylkanamycin B (abbreviated as AHB-trideoxyMKMB), 1-N-[(RS)-3-amino-2-hydroxypropionyl]-5,3',4'-trideoxy-6'-N-methylkanamycin B (abbreviated as AHP-trideoxyMKMB) and 1-N-[(S)-5-amino-2-hydroxyvaleryl]-5,3',4'-trideoxy-6'-N-methylkanamycin B (abbreviated as AHV-trideoxyMKMB) of the formula (IV) according to this invention as well as of the new compound 5,3',4'-trideoxy-6'-N-methylkanamycin B (abbreviated as trideoxyMKMB) of the formula (V) according to this invention against various microorganisms were determined according to serial dilution method on a nutrient agar medium at 37° C., the estimation being made after 18 hours incubation. For comparison purpose, the minimum inhibitory concentrations of 1-N-[(S)-4-amino-2-hydroxybutyryl]-3',4'-dideoxykanamycin B (ie. habekacin) were also determined in the same manner as stated above.

[18] = test system: Escherichia coli K-12 J5R 11-2; test: as above; conditions: K12J5R112, 37° C., 18 hours incubation
Text: as §1, §2

[19] = test system: Escherichia coli K-12 ML 1630; test: as above; conditions: K12ML1630, 37° C., 18 hours incubation
Text: as §1, §2

[20] = test system: Shigella flexneri 4b JS11811; test: as above; conditions: 4BJS11811, 37° C., 18 hours incubation
Text: as §1, §2

[21] = test system: Escherichia coli K-12 C 600R/35; test: as above; conditions: K12C600R/35, 37° C., 18 hours incubation
Text: as §1, §2

Salmonella typhi T-63 = test: as above; conditions: Salmonella enterica, 18 h
[22] = PCI602, nutrient agar, 37° C., 18 hours incubation, read-out: MIC
[23] = TI13, nutrient agar, 37° C., 18 hours incubation, read-out: MIC
[24] = FDA16, nutrient agar, 37° C., 18 hours incubation, read-out: MIC
[25] = PCI1001, nutrient agar, 37° C., 18 hours incubation, read-out: MIC
[26] = JR66/W677, nutrient agar, 37° C., 18 hours incubation, read-out: MIC
[27] = H9, nutrient agar, 37° C., 18 hours incubation, read-out: MIC
[28] = ATCC10702, nutrient agar, 37° C., 18 hours incubation, read-out: MIC
[29] = Pseudomonas aeruginosa, 99, nutrient agar, 37° C., 18 hours incubation, read-out: MIC
[30] = KPS102, nutrient agar, 37° C., 18 hours incubation, read-out: MIC
[31] = ATCC607, nutrient agar, 37° C., 18 hours incubation, read-out: MIC

| Compound | MIC [2] | MIC [5] | MIC (Serratia SOU) | MIC (Escherichia coli K-12) | MIC (Bacillus anthracis) | MIC (Providencia Pv 16) | MIC [9] | MIC [10] | MIC (Serratia 4) | MIC [13] | MIC [14] | MIC (Escherichia coli K-12 R5) | MIC [16] | MIC (Escherichia coli NIHJ) | MIC [17] | MIC (Shigella sonnei JS11746) | MIC [18] | MIC [19] | MIC [20] | MIC [21] | other results |
| --- | --- | --- | --- | --- | --- | --- | --- | --- | --- | --- | --- | --- | --- | --- | --- | --- | --- | --- | --- | --- | --- |
| CNC[C@@H]1CC[C@@H](N)[C@@H](O[C@H]2C[C@@H](O[C@H]3O[C@H](CO)[C@@H](O)[C@H](N)[C@H]3O)[C@H](N)C[C@@H]2N)O1 [TrideoxyMKMB, 5,3',4'-trideoxy-6'-N-methylkanamycin B] | 25 µg/mL (≈ 55.6 µM) | 25 µg/mL (≈ 55.6 µM) | > 100 µg/mL | 12.5 µg/mL (≈ 27.8 µM) | 0.78 µg/mL (≈ 1.74 µM) | > 100 µg/mL | > 100 µg/mL | 1.56 µg/mL (≈ 3.47 µM) | 50 µg/mL (≈ 111 µM) | < 0.2 µg/mL | > 100 µg/mL | 50 µg/mL (≈ 111 µM) | 25 µg/mL (≈ 55.6 µM) | 12.5 µg/mL (≈ 27.8 µM) | 25 µg/mL (≈ 55.6 µM) | 25 µg/mL (≈ 55.6 µM) | 25 µg/mL (≈ 55.6 µM) | 25 µg/mL (≈ 55.6 µM) | 25 µg/mL (≈ 55.6 µM) | 12.5 µg/mL (≈ 27.8 µM) | MIC [1, 22]: 12.5 µg/mL (≈ 27.8 µM); MIC [3, 23]: 12.5 µg/mL (≈ 27.8 µM); MIC ([4]; ATCC607, 18 h): 6.25 µg/mL (≈ 13.9 µM); MIC [6, 24]: 100 µg/mL (≈ 222 µM); MIC (Sarcina lutea PCI 1001; [25]): 25 µg/mL (≈ 55.6 µM); MIC [7, 26]: 100 µg/mL (≈ 222 µM); MIC [8, 27]: 25 µg/mL (≈ 55.6 µM); MIC [11, 28]: 12.5 µg/mL (≈ 27.8 µM); MIC [12, 29]: 50 µg/mL (≈ 111 µM); MIC [15, 30]: 25 µg/mL (≈ 55.6 µM); MIC (Salmonella typhi T-63): 6.25 µg/mL (≈ 13.9 µM) |
| C[C@H]1O[C@H](O[C@@H]2C[C@H](O[C@H]3O[C@H](CN)CC[C@H]3N)[C@@H](N)C[C@H]2N)[C@H](O)[C@@H](N)[C@@H]1O [TetradeoxyKMB, 5,3',4',6"-tetradeoxykanamycin B] | 6.25 µg/mL (≈ 14.9 µM) | 100 µg/mL (≈ 238 µM) | > 100 µg/mL | 25 µg/mL (≈ 59.6 µM) | 0.39 µg/mL (≈ 0.93 µM) | > 100 µg/mL | > 100 µg/mL | 3.13 µg/mL (≈ 7.46 µM) | 50 µg/mL (≈ 119 µM) | < 0.2 µg/mL | > 100 µg/mL | > 100 µg/mL | 25 µg/mL (≈ 59.6 µM) | 6.25 µg/mL (≈ 14.9 µM) | 100 µg/mL (≈ 238 µM) | 12.5 µg/mL (≈ 29.8 µM) | 6.25 µg/mL (≈ 14.9 µM) | 12.5 µg/mL (≈ 29.8 µM) | 25 µg/mL (≈ 59.6 µM) | 6.25 µg/mL (≈ 14.9 µM) | MIC [1, 22]: 3.13 µg/mL (≈ 7.46 µM); MIC ([3]; TI13, 18 h): 12.5 µg/mL (≈ 29.8 µM); MIC [4, 31]: 0.78 µg/mL (≈ 1.86 µM); MIC [6, 24]: 50 µg/mL (≈ 119 µM); MIC (Sarcina lutea PCI 1001; [25]): 50 µg/mL (≈ 119 µM); MIC [7, 26]: > 100 µg/mL; MIC [8, 27]: 100 µg/mL (≈ 238 µM); MIC [11, 28]: 3.13 µg/mL (≈ 7.46 µM); MIC [12, 29]: 25 µg/mL (≈ 59.6 µM); MIC ([15]; KPS102, 18 h): 12.5 µg/mL (≈ 29.8 µM); MIC (Salmonella typhi T-63): 12.5 µg/mL (≈ 29.8 µM) |
| NCC[C@H](O)C(=O)N[C@@H]1C[C@H](N)[C@@H](O[C@H]2O[C@H](CN)CC[C@H]2N)[C@H](O)[C@H]1O[C@H]1O[C@H](CO)[C@@H](O)[C@H](N)[C@H]1O [Habekacin, 1-N-[(S)-4-amino-2-hydroxybutyryl]-3',4'-dideoxykanamycin B, reference compound] | 0.78 µg/mL (≈ 1.41 µM) | 3.13 µg/mL (≈ 5.66 µM) | > 100 µg/mL | 3.13 µg/mL (≈ 5.66 µM) | < 0.2 µg/mL | 25 µg/mL (≈ 45.2 µM) | > 100 µg/mL | 0.39 µg/mL (≈ 0.706 µM) | 50 µg/mL (≈ 90.5 µM) | < 0.2 µg/mL | 25 µg/mL (≈ 45.2 µM) | 100 µg/mL (≈ 181 µM) | 3.13 µg/mL (≈ 5.66 µM) | 3.13 µg/mL (≈ 5.66 µM) | 3.13 µg/mL (≈ 5.66 µM) | 6.25 µg/mL (≈ 11.3 µM) | 1.56 µg/mL (≈ 2.82 µM) | 3.13 µg/mL (≈ 5.66 µM) | 6.25 µg/mL (≈ 11.3 µM) | 1.56 µg/mL (≈ 2.82 µM) | MIC ([1]; PCI602, 18 h): 1.56 µg/mL (≈ 2.82 µM); MIC [3, 23]: 3.13 µg/mL (≈ 5.66 µM); MIC [4, 31]: 0.39 µg/mL (≈ 0.706 µM); MIC ([6]; FDA16, 18 h): 1.56 µg/mL (≈ 2.82 µM); MIC (Sarcina lutea PCI 1001; PCI1001, 18 h): 1.56 µg/mL (≈ 2.82 µM); MIC ([7]; JR66/W677, 18 h): 6.25 µg/mL (≈ 11.3 µM); MIC ([8]; H9, 18 h): 6.25 µg/mL (≈ 11.3 µM); MIC ([11]; ATCC10702, 18 h): 1.56 µg/mL (≈ 2.82 µM); MIC ([12]; Pseudomonas aeruginosa, 99, 18 h): 6.25 µg/mL (≈ 11.3 µM); MIC [15, 30]: 3.13 µg/mL (≈ 5.66 µM); MIC (Salmonella typhi T-63): 1.56 µg/mL (≈ 2.82 µM) |
